Publication PMC12040169 (PLOS Biology, 2025)

Assay: in vitro
Conditions: human, hela cells, % viability

Row | SMILES | viability at 28.5 h, 10 µM [%] | viability at 28.5 h, 10 µM (bulk resorufin, single well) [%]
1 | NS(=O)(=O)c1ccc(CNC2CC(=O)N(CCc3ccccc3)C2=O)cc1 (stereo not shown) [CBK262464] | 91.7 | 
2 | COc1cc(NS(=O)(=O)c2ccc(NC(=O)c3cccc4ccccc34)cc2)nc(OC)n1 [CBK262465] | 96.6 | 
3 | Cc1cc(C(=O)NCCCN(C)C)ccc1[N+](=O)[O-] [CBK262467] | 90.8 | 
4 | Oc1cccc(/C=N/Nc2nncc(-c3ccccc3)n2)c1 [CBK262468] | 86.6 | 
5 | N=c1n(Cc2ccccc2)c2ccccc2n1CC(O)COc1ccc(Cl)cc1 (stereo not shown) [CBK262469C] | 94.4 | 
6 | O=C(CN(c1cccc(Cl)c1)S(=O)(=O)c1ccccc1)NN=C1CCCCC1 [CBK262470] | 114 | 
7 | CN(C)Cc1c(O)[nH]c(=S)[nH]c1=O [CBK262474] |  | 92.6
8 | Cc1cc([N+](=O)[O-])cc2c1NC(=O)C2(O)N1CCOCC1 (stereo not shown) [CBK262475] | 91.7 | 
9 | C=CCn1c(=O)c(C(=O)NCCCO)c(O)c2ccccc21 [CBK262481] | 83.9 | 
10 | COc1cc(/C=C(\C#N)c2nn(-c3ccccc3)c(N)c2C#N)ccc1Oc1ccc(C(F)(F)F)cc1[N+](=O)[O-] [CBK262484] | 92.7 | 
11 | NC(=O)c1c(NC(=O)c2ccc(S(=O)(=O)N3CCCC3)cc2)sc2c1CCCC2 [CBK262486] | 106 | 
12 | CCC(=O)c1c(-c2ccccc2)nc2n(C)c3ccccc3n12 [CBK262488] | 69.9 | 
13 | Cc1ccc(C)c(Nc2nc3nonc3nc2N2CCOCC2)c1 [CBK262491] | 88.8 | 
14 | Oc1ccc(/C=N/Nc2nncc(-c3ccccc3)n2)c(O)c1O [CBK262492] | 80.6 | 
15 | O=c1[nH]c(=S)[nH]c(O)c1CN1CCOCC1 [CBK262493] |  | 98.7
16 | O=C(N/N=C/c1ccc(N2N=C(c3ccc(Cl)cc3)CC2c2ccc(Cl)cc2)cc1)c1cccnc1 (stereo not shown) [CBK262494] | 103 | 
17 | CCN(CC)CC(O)Cn1c(-c2ccccc2Cl)nc2ccccc21 (stereo not shown) [CBK262495] | 96.3 | 

Row | SMILES | viability at 28.5 h, 10 µM [%] | viability at 28.5 h, 10 µM (bulk resorufin, single well) [%]
18 | COc1ccc([N+](=O)[O-])cc1-c1ccc(-c2nc(-c3ccccc3)c(-c3ccccc3)[nH]2)o1 [CBK262497] | 77.3 | 
19 | Cn1c(CNc2ccc(C(=O)O)cc2)nc2ccccc21 [CBK262501] | 95.1 | 
20 | CCOC(=O)c1[nH]c(C)c(C(=O)N/N=C/c2ccc(-c3ccc(Cl)cc3)o2)c1C [CBK262503] | 95 | 
21 | O=C1c2ccccc2C(=O)N1c1ccc(S(=O)(=O)NCCCO)c2ccccc12 [CBK262509] | 105 | 
22 | N=c1n(CCN2CCCCC2)c2ccccc2n1CC(O)COc1ccc(Cl)cc1 (stereo not shown) [CBK262512C] | 89.7 | 
23 | CC(=O)Nc1nnc(SCCc2ccccc2)[nH]1 [CBK262514] | 95.6 | 
24 | NNC(=O)c1c(NC(=O)c2ccccc2)sc2c1CCC2 [CBK262516] | 104 | 
25 | CCN(CC)CCn1c(=N)n(CC(=O)OC)c2ccccc21 [CBK262517B] | 87.3 | 
26 | O=C(CN(c1cccc(Cl)c1)S(=O)(=O)c1ccccc1)NN=C1CCCCCC1 [CBK262519] | 89.9 | 
27 | CC1(C)CC(=O)C(=CNCC(N)=O)C(=O)C1 [CBK262520] | 87.2 | 
28 | O=C1CC(c2ccccc2)CC(=O)C1=CNCCN1CCOCC1 (stereo not shown) [CBK262522] | 94 | 
29 | Cc1ccccc1OCCSc1nc2ccccc2n1CCO [CBK262523] | 98.1 | 
30 | COC(=O)c1ccccc1NC(=O)c1cc2nc(-c3cccs3)cc(C(F)(F)F)n2n1 [CBK262524] | 88 | 
31 | C=CCOC(=O)C1=C(C)OC(N)=C(C(=O)OCc2ccccc2)C12C(=O)Nc1ccccc12 (stereo not shown) [CBK262527] | 90.9 | 
32 | Cc1nc(N/C(=N/C(=O)c2ccccc2)NC(=O)c2ccccc2)nc2ccccc12 [CBK262529] | 103 | 
33 | CN(C)c1ccc(/C=C(\C#N)c2nn(-c3ccccc3)c(N)c2C#N)cc1[N+](=O)[O-] [CBK262532] | 83.4 | 
34 | O=C(Nc1cc(Oc2cccnc2)cc([N+](=O)[O-])c1)c1nn2c(C(F)(F)F)cc(-c3cccs3)nc2c1Br [CBK262535] | 84.7 | 
